Test results reported in patent US20230146455A1, “TREATMENT OF INFLAMMATORY DISEASES WITH PEPTIDES AND PHARMACEUTICAL COMPOSITIONS” (Yuyu Pharma, Inc., priority 2020, published 2023).
Several values for one entry are separate records, joined by “and”; a condition that tells them apart may be missing. Equal values may be shown once. Where a SMILES comes first, the peptide text is derived from it. [ ]: non-standard residue; d: D form. Hyp = O=C(O)[C@@H]1C[C@@H](O)CN1

Test system: IL-6
Experiment: Example 9 Luminex, LPS hPBMCs: IL-6
Type: cell-based, human
Settings: Bead IL-6
Procedure: Treatment Human PBMCs were pretreated with YY-101, YDE-011 and YDE-043 or reference compound; Xiidra® at various concentration (ranging from 1 nM to 100 uM) for 2 h before stimulation. An equal volume of 0.5% DMSO was used as a vehicle control. Then, the cells were treated with LPS at 5 ug/ml. The supernatants from treated cells were harvested at 24 h and placed in a 96 well for Luminex cytokine & chemokine profiling using a Luminex 200 multiplex assay (Luminex; R&D system, USA).
The main study arm with triplicate wells per group in a 24-well plate: • 1. Blank • 2. PBMC: 0.5% DMSO • 3. PBMC+LPS (5 ug/ml) • 4. PBMC+YY-101 100 uM • 5. PBMC+YY-101 10 uM • 6. PBMC+YY-101 1 uM • 7. PBMC+YY-101 0.1 uM • 8. PBMC+YY-101 0.01 uM • 9. PBMC+LPS (5 ug/ml)+Xiidra®100 uM • 10. PBMC+LPS (5 ug/ml)+Xiidra® 10 uM • 11. PBMC+LPS (5 ug/ml)+Xiidra® 1 uM • 12. PBMC+LPS (5 ug/ml)+Xiidra®0.1 uM • 13. PBMC+LPS (5 ug/ml)+Xiidra®0.01 uM • 14. PBMC+LPS (5 ug/ml)+Xiidra®0.001 uM • 15. PBMC+LPS (5 ug/ml)+YY-101 100 uM • 16. PBMC+LPS (5 ug/ml)+YY-101 10 uM • 17. PBMC+LPS (5 ug/ml)+YY-101 1 uM • 18. PBMC+LPS (5 ug/ml)+YY-101 0.1 uM • 19. PBMC+LPS (5 ug/ml)+YY-101 0.01 uM • 20. PBMC+LPS (5 ug/ml)+YY-101 0.001 uM • 21. PBMC+LPS (5 ug/ml)+YDE-011 100 uM • 22. PBMC+LPS (5 ug/ml)+YDE-011 10 uM • 23. PBMC+LPS (5 ug/ml)+YDE-011 1 uM • 24. PBMC+LPS (5 ug/ml)+YDE-011 0.1 uM • 25. PBMC+LPS (5 ug/ml)+YDE-011 0.01 uM • 26. PBMC+LPS (5 ug/ml)+YDE-011 0.001 uM • 27. PBMC+LPS (5 ug/ml)+YDE-043 100 uM • 28. PBMC+LPS (5 ug/ml)+YDE-043 10 uM • 29. PBMC+LPS (5 ug/ml)+YDE-043 1 uM • 30. PBMC+LPS (5 ug/ml)+YDE-043 0.1 uM • 31. PBMC+LPS (5 ug/ml)+YDE-043 0.01 uM • 32. PBMC+LPS (5 ug/ml)+YDE-043 0.001 uM
Multiplex assay was used to measure 30 cytokines and chemokines. The 1:2, 1:10 and 1:200 diluted cell supernatant and serial dilution of the standard were dispensed into a 96 well plate at 50 ul/well. Then, the pre-mixed cocktail of antibody-coated magnetic beads was dispensed at 50 ul/well and incubated at room temperature for 2 h in a horizontal orbital microplate shaker at 800±500 rpm. The beads were washed using a magnetic device to prevent loss. The biotin-antibody was dispensed in 50 ul of each well and incubated at room temperature for 1 h in a shaker at 800±500 rpm. After washing, streptavidin-PE was added at 50 ul/well and incubated at room temperature for 30 min in a shaker under the same conditions. Finally, after washing, wash buffer (100 ul/well) was added to the plate and incubated in a shaker for 2 min. The Luminex™ 200 setting were set according to the manufacturer's protocol. The data was calculated with a standard five-parameter logistic nonlinear regression analysis of the data (xPonent software 4.2, USA). The levels of cytokine/chemokine are normalized to the live cell counts (1×10^5 cells/mL) and presented as concentrations per mL (pg/mL or ng/mL).

[1] = PBMC + LPS(5 ug/ml), 0.001 uM, Mean
[2] = PBMC + LPS(5 ug/ml), 0.001 uM, single replicates
[3] = PBMC + LPS(5 ug/ml), 0.01 uM, Mean
[4] = PBMC + LPS(5 ug/ml), 0.01 uM, single replicates
[5] = PBMC + LPS(5 ug/ml), 0.1 uM, Mean
[6] = PBMC + LPS(5 ug/ml), 0.1 uM, single replicates
[7] = PBMC + LPS(5 ug/ml), 1 uM, Mean
[8] = PBMC + LPS(5 ug/ml), 1 uM, single replicates
[9] = PBMC + LPS(5 ug/ml), 10 uM, Mean
[10] = PBMC + LPS(5 ug/ml), 10 uM, single replicates
[11] = PBMC + LPS(5 ug/ml), 100 uM, Mean
[12] = PBMC + LPS(5 ug/ml), 100 uM, single replicates
[13] = PBMC without LPS, 0.01 uM, Mean
[14] = PBMC without LPS, 0.01 uM, single replicates
[15] = PBMC without LPS, 0.1 uM, single replicates
[16] = PBMC without LPS, 1 uM, single replicates
[17] = PBMC without LPS, 10 uM, single replicates
[18] = PBMC without LPS, 100 uM, single replicates

Work on `CC(C)C[C@H](NC(=O)CNC(=O)[C@H](CC(=O)O)NC(=O)[C@H](CCC(N)=O)NC(=O)CNC(=O)[C@@H]1C[C@@H](O)CN1)C(=O)N[C@@H](C)C(=O)NCC(=O)N1CCC[C@H]1C(=O)N[C@@H](CCCCN)C(=O)O` [YY-101] (H-[Hyp]GQDGLAGPK-OH; N-terminus and C-terminus assumed) yielded a Concentration [1] of 12498.5 pg/mL, an MFI [1] of 355.4 and a conc/live cell [1] of 1952.7 pg/10^5. The Concentration [2] was 13037.8 pg/mL and 12646.1 pg/mL and 11811.7 pg/mL, the MFI [2] was 371.3 and 359.8 and 335.3 and the conc/live cell [2] was 2287.3 pg/10^5 and 1781.1 pg/10^5 and 1789.6 pg/10^5. For the same compound, the Concentration [3] was 13304.7 pg/mL, the MFI [3] was 379.1 and the conc/live cell [3] was 2159.4 pg/10^5. The Concentration [4] was 13276.3 pg/mL and 13531.9 pg/mL and 13106.0 pg/mL, the MFI [4] was 378.3 and 385.8 and 373.3 and the conc/live cell [4] was 2074.4 pg/10^5 and 2255.3 pg/10^5 and 2148.5 pg/10^5. For the same compound, the Concentration [5] was 12816.4 pg/mL, the MFI [5] was 364.8 and the conc/live cell [5] was 2203.2 pg/10^5. For the same compound, the Concentration [6] was 12441.7 pg/mL and 13157.1 pg/mL and 12850.5 pg/mL, the MFI [6] was 353.8 and 374.8 and 365.8 and the conc/live cell [6] was 2006.7 pg/10^5 and 2530.2 pg/10^5 and 2072.7 pg/10^5. The Concentration [7] was 13020.8 pg/mL, the MFI [7] was 370.8 and the conc/live cell [7] was 2001.1 pg/10^5. For the same compound, the Concentration [8] was 13242.2 pg/mL and 12867.5 pg/mL and 12952.6 pg/mL, the MFI [8] was 377.3 and 366.3 and 368.8 and the conc/live cell [8] was 2101.9 pg/10^5 and 1812.3 pg/10^5 and 2089.1 pg/10^5. The Concentration [9] was 14020.8 pg/mL, the MFI [9] was 400.1 and the conc/live cell [9] was 2132.1 pg/10^5. For the same compound, the Concentration [10] was 13975.0 pg/mL and 15049.6 pg/mL and 13037.8 pg/mL, the MFI [10] was 398.8 and 430.3 and 371.3 and the conc/live cell [10] was 2329.2 pg/10^5 and 2351.5 pg/10^5 and 1715.5 pg/10^5. For the same compound, the Concentration [11] was 15533.5 pg/mL, the MFI [11] was 444.4 and the conc/live cell [11] was 2685.2 pg/10^5. For the same compound, the Concentration [12] was 16142.7 pg/mL and 15459.3 pg/mL and 14998.4 pg/mL, the MFI [12] was 462.3 and 442.3 and 428.8 and the conc/live cell [12] was 2562.3 pg/10^5 and 2493.4 pg/10^5 and 2999.7 pg/10^5. For the same compound, the MFI [13] was 3.3, the conc/live cell [13] was 0.0 pg/10^5 and the MFI [14] was 4.3 and 2.3. For the same compound, the conc/live cell [14] was 0.0 pg/10^5, the MFI (PBMC without LPS, 0.1 uM, Mean) was 1.3 and the conc/live cell (PBMC without LPS, 0.1 uM, Mean) was 0.0 pg/10^5. For the same compound, the MFI [15] was 1.3, the conc/live cell [15] was 0.0 pg/10^5 and the MFI (PBMC without LPS, 1 uM, Mean) was 1.8. For the same compound, the conc/live cell (PBMC without LPS, 1 uM, Mean) was 0.0 pg/10^5, the MFI [16] was 2.3 and 1.3 and the conc/live cell [16] was 0.0 pg/10^5. For the same compound, the Concentration (PBMC without LPS, 10 uM, Mean) was 880.7 pg/mL, the MFI (PBMC without LPS, 10 uM, Mean) was 15.3 and the conc/live cell (PBMC without LPS, 10 uM, Mean) was 68.8 pg/10^5. The Concentration [17] was 880.7 pg/mL, the MFI [17] was 27.3 and 3.3 and the conc/live cell [17] was 137.6 pg/10^5 and 0.0 pg/10^5. It also gave a Concentration (PBMC without LPS, 100 uM, Mean) of 524.7 pg/mL, an MFI (PBMC without LPS, 100 uM, Mean) of 15.8 and a conc/live cell (PBMC without LPS, 100 uM, Mean) of 41.0 pg/10^5. The Concentration [18] was 524.7 pg/mL, the MFI [18] was 19.8 and 11.8 and the conc/live cell [18] was 82.0 pg/10^5 and 0.0 pg/10^5.
`CC(C)C[C@H](NC(=O)[C@H](CCC(N)=O)NC(=O)CNC(=O)[C@@H]1C[C@@H](O)CN1)C(=O)NCC(=O)O` [YDE-043] (H-[Hyp]GQLG-OH; N-terminus and C-terminus assumed) was tested, and the Concentration [1] was 7090.4 pg/mL, the MFI [1] was 197.1 and the conc/live cell [1] was 1434.2 pg/10^5. For the same compound, the Concentration [2] was 6355.1 pg/mL and 7578.4 pg/mL and 7337.9 pg/mL, the MFI [2] was 175.8 and 211.3 and 204.3 and the conc/live cell [2] was 1444.3 pg/10^5 and 1263.1 pg/10^5 and 1595.2 pg/10^5. For the same compound, the Concentration [3] was 6942.0 pg/mL, the MFI [3] was 192.8 and the conc/live cell [3] was 1327.4 pg/10^5. For the same compound, the Concentration [4] was 7062.6 pg/mL and 7011.0 pg/mL and 6752.4 pg/mL, the MFI [4] was 196.3 and 194.8 and 187.3 and the conc/live cell [4] was 1569.5 pg/10^5 and 1062.3 pg/10^5 and 1350.5 pg/10^5. It also gave a Concentration [5] of 6590.8 pg/mL, an MFI [5] of 182.6 and a conc/live cell [5] of 1223.6 pg/10^5. For the same compound, the Concentration [6] was 6528.0 pg/mL and 6147.3 pg/mL and 7097.1 pg/mL, the MFI [6] was 180.8 and 169.8 and 197.3 and the conc/live cell [6] was 1305.6 pg/10^5 and 1097.7 pg/10^5 and 1267.3 pg/10^5. For the same compound, the Concentration [7] was 6992.5 pg/mL, the MFI [7] was 194.3 and the conc/live cell [7] was 1321.1 pg/10^5. The Concentration [8] was 7131.5 pg/mL and 6164.6 pg/mL and 7681.3 pg/mL, the MFI [8] was 198.3 and 170.3 and 214.3 and the conc/live cell [8] was 1229.6 pg/10^5 and 1284.3 pg/10^5 and 1449.3 pg/10^5. For the same compound, the Concentration [9] was 9513.9 pg/mL, the MFI [9] was 268.1 and the conc/live cell [9] was 1764.4 pg/10^5. The Concentration [10] was 7303.5 pg/mL and 14554.8 pg/mL and 6683.4 pg/mL, the MFI [10] was 203.3 and 415.8 and 185.3 and the conc/live cell [10] was 1404.5 pg/10^5 and 2695.3 pg/10^5 and 1193.5 pg/10^5. The Concentration [11] was 7286.3 pg/mL, the MFI [11] was 202.8 and the conc/live cell [11] was 1157.1 pg/10^5. The Concentration [12] was 7389.4 pg/mL and 7183.1 pg/mL, the MFI [12] was 205.8 and 199.8 and the conc/live cell [12] was 1191.8 pg/10^5 and 1122.4 pg/10^5.
